Measurements as given in ChEMBL document CHEMBL1201862, “PubChem BioAssay data set” (2004).
Where “and” joins values, the source holds several entries; their conditions need not be identical. Identical values can stand only once. Calls of active or inactive are those of the source.

Experiments:
[1] = biological target: T1, High affinity choline transporter 1 (Homo sapiens, UniProt Q9GZV3); test: human choline transporter potentiators, potency – cell-based, 10-point CRC, membrane potential dye, dose response (AID 602376); format: functional
T1 sequence (Q9GZV3 whole entry): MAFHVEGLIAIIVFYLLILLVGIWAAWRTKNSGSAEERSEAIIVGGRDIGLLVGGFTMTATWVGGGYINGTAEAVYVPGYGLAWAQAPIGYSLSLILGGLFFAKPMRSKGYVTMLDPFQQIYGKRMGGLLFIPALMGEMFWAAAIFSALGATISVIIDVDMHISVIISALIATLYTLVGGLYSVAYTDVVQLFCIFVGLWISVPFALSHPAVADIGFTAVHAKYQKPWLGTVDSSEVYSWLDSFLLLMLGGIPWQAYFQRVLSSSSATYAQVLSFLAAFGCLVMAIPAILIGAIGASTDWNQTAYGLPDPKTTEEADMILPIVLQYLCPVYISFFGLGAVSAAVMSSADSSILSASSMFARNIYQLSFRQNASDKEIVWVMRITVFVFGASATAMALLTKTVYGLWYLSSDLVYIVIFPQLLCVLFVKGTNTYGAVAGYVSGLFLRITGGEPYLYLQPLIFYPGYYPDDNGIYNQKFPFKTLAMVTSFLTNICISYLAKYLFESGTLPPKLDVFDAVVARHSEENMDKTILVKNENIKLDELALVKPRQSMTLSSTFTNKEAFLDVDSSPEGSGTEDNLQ

[2] = Fluorescence-based cell-based high throughput dose response assay for inhibitors of the interaction of nucleotide-binding oligomerization domain containing 2 (NOD2) and the receptor-interacting serine-threonine kinase 2 (RIPK2).; format: functional; conditions: Homo sapiens
[3] = test system: BJ; test: BJ-TERT fibroblast viability loss – cell-based, RAS-independent, luminescence, dose response (AID 1933); format: functional; conditions: Homo sapiens
[4] = test system: BJ; test: cells; format: functional, cell-based; conditions: Homo sapiens
[5] = test system: BJ; test: growth inhibition of engineered Ras-driven BJ cells – cell-based, alamar blue fluorescence, cherrypicked samples, dose response (AID 2631); format: functional; conditions: Homo sapiens;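 also: confirmatory dose-response assay in RAS-dependent BJ fibroblasts engineered with TERT, LT and ST, with cytotoxicity read by fluorescence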
[6] = DRD fibroblast viability loss – cell-based, non-viral oncogenic, luminescence, dose response (AID 1934); format: functional; conditions: Homo sapiens
[7] = test system: BJ; test: BJ-TERT-LT-ST fibroblast viability loss – cell-based, RAS-independent, luminescence, dose response (AID 1935); format: functional; conditions: Homo sapiens;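 also: BJ fibroblasts immortalized with TERT plus LT and ST oncogenes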
[8] = biological target: Aryl hydrocarbon receptor (Homo sapiens, UniProt P35869); conditions: Potency;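 also: confirmatory quantitative high-throughput screen measuring activation of the AhR signaling pathway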
Aryl hydrocarbon receptor, sequence (P35869 whole entry): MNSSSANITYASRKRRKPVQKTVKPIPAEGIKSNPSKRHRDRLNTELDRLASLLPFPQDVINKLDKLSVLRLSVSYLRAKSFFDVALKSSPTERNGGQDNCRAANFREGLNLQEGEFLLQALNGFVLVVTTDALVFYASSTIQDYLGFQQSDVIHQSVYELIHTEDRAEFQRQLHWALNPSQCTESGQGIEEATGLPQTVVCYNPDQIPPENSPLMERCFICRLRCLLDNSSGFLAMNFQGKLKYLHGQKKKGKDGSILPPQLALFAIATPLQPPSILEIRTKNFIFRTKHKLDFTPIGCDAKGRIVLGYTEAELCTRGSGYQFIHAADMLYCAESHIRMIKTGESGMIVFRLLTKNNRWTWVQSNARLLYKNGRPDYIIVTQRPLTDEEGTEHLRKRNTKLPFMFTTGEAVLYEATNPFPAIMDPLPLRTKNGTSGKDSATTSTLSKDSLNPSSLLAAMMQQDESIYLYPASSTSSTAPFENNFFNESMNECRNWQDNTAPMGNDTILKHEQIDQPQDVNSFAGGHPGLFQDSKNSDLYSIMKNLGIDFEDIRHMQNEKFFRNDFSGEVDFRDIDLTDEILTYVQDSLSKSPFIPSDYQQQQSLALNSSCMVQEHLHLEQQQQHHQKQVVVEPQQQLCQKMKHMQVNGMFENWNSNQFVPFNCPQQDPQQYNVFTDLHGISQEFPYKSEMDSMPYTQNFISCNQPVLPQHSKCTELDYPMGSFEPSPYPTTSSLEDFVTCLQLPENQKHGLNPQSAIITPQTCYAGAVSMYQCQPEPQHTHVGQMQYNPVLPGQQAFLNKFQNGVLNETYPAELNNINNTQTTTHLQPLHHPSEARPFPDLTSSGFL

[9] = biological target: T1, High affinity choline transporter 1; test: human choline transporter blockers, potency – cell-based, 10-point CRC, membrane potential dye, dose response (AID 588401); format: functional;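 also: membrane potential dye fluorescence of choline-evoked depolarization via CHT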
[10] = biological target: T1, High affinity choline transporter 1; test: human choline transporter blockers, potency – cell-based, 5-point CRC, membrane potential dye, dose response (AID 504840); format: functional
[11] = Luminescence Cell-Based Dose Retest to Confirm Inhibitors of Cancer Stem Cells. [Related pubchem assays (depositor defined):AID2717, AID2721]; format: functional, Homo sapiens; conditions: Homo sapiens
[12] = biological target: Steroidogenic factor 1 (Homo sapiens, UniProt Q13285); test: Counterscreen for inverse agonists of the liver receptor homolog-1 (LRH-1; NR5A2): Luminescence-based cell-based high throughput dose response assay to identify inverse agonists of the Steroidogenic Factor 1 Nuclear Receptor (SF1; NR5A1).; format: functional
Steroidogenic factor 1, sequence (Q13285 whole entry): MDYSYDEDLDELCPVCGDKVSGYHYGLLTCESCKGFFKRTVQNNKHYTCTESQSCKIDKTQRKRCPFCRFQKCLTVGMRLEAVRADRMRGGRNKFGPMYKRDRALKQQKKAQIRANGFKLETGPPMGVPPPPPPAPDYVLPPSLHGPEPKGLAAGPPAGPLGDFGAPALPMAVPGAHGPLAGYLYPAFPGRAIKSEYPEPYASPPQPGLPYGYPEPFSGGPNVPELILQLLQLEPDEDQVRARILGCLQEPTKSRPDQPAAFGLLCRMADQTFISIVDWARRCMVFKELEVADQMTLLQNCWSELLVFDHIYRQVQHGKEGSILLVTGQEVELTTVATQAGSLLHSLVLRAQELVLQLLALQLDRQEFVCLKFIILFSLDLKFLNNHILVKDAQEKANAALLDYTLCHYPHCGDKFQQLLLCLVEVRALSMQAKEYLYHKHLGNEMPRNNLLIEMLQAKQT

[13] = Vero E6 cell cytotoxicity, dose response, cytotoxicity control for non-replicating M. tuberculosis project, secondary assay (AID 492998); format: functional, VeroE6; conditions: Vero C1008
[14] = biological target: Nuclear receptor subfamily 5 group A member 2 (Homo sapiens, UniProt O00482); format: functional, cell-based;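 also: HEK293T cells transfected with LRH-1 and a StAR promoter luciferase reporter; potency for inhibitors that lower LRH-1 driven reporter light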
Nuclear receptor subfamily 5 group A member 2, sequence (O00482 whole entry): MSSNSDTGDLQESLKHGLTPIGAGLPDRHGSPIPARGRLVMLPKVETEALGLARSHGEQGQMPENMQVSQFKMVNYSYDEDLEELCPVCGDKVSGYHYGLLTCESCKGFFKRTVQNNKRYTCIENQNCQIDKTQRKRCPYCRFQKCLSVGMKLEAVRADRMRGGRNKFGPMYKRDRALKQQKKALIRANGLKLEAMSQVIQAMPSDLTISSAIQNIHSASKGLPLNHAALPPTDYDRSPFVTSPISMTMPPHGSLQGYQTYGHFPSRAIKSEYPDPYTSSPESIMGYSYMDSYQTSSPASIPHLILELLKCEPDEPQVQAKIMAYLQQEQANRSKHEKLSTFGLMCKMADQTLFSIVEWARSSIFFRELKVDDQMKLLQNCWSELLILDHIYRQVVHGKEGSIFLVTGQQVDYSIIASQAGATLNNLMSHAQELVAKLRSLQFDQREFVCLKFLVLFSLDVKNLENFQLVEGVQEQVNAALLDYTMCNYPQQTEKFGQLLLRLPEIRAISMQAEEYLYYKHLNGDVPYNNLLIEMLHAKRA

[15] = THP-1 cell cytotoxicity, dose response, cytotoxicity control for non-replicating M. tuberculosis project (AID 489025); format: functional
[16] = nonselective StAR promoter luciferase inhibitors – cell-based, luminescence, luciferase reporter, counter-screen for LRH-1 inverse agonist project, dose response (AID 651969); format: functional
[17] = Luminescence Cell-Based Dose Response HTS to Identify Activators of Luciferase Translation or Activity in H4 […] Cells. [Related pubchem assays: 1829 (Project Summary), 1814 (Primary HTS)]; format: functional
[18] = test system: H4; test: Luminescence Cell-Based Dose Response HTS to Identify Activators of 5'UTR Stem-Loop Driven Prion Protein mRNA Translation in H4 Neuroglioblastoma Cells. [Related pubchem assays: 1829 (Project Summary), 1814 (Primary HTS)]; format: functional; conditions: Homo sapiens
[19] = Luminescence Cell-Based Dose Confirmation HTS to Identify Activators of 5'UTR Stem-Loop Driven Alpha-Synuclein mRNA Translation in H4 Neuroglioblastoma Cells. [Related pubchem assays: 1829 (Project Summary), 1814 (Primary HTS)]; format: functional
[20] = cells; format: functional
[21] = biological target: Luciferin 4-monooxygenase (Photinus pyralis, UniProt P08659); test: inhibition of purified Photinus pyralis luciferase – biochemical, luminescence, dose response (AID 1891)
Luciferin 4-monooxygenase, sequence (P08659 whole entry): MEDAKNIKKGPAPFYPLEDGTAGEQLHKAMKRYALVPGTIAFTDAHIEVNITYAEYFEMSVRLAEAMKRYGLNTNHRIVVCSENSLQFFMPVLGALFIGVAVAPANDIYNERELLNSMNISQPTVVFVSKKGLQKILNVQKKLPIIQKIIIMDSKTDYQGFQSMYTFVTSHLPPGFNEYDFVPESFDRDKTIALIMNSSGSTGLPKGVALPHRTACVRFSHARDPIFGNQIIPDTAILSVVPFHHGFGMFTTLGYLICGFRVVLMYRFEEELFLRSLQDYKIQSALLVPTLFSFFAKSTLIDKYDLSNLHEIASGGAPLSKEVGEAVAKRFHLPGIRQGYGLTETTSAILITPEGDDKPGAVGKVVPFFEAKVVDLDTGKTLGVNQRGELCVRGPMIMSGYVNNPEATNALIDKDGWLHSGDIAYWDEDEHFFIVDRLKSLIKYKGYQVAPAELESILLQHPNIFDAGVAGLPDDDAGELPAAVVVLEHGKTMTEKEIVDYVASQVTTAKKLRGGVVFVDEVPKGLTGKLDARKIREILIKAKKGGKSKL

[22] = Luminescence Cell-Based Dose Confirmation HTS to Identify Inhibitors of Platelet Dense Granule Release. [Related pubchem assays: 1663 (Primary HTS), 1678 (Summary of Project)]; format: functional
[23] = biological target: Photoreceptor-specific nuclear receptor (Homo sapiens, UniProt Q9Y5X4); format: functional, cell-based;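 also: CHO-S cells with Gal4-NCOR and VP16-NR2E3 two-hybrid luciferase reporter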
Photoreceptor-specific nuclear receptor, sequence (Q9Y5X4 whole entry, the tested form may be a part): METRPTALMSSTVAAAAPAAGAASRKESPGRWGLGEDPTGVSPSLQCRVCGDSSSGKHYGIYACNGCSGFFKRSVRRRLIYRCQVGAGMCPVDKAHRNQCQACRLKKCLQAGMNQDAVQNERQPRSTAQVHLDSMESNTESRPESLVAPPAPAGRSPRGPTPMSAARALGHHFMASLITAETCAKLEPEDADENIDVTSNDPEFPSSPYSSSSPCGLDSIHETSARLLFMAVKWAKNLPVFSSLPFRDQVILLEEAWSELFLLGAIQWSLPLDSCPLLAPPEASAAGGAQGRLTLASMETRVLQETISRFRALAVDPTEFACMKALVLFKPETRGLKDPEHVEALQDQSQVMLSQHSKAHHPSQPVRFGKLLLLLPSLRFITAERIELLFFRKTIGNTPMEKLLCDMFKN

[24] = biological target: T2, Tyrosine-protein phosphatase non-receptor type 22 (Homo sapiens, UniProt Q9Y2R2); test: PTPN22 enzyme inhibitors – biochemical, fluorescence, LYP catalytic domain, selectivity assay for LMPTP inhibitor project, dose response (AID 652006); format: functional; conditions: read-out: IC50_Mean
T2 sequence (Q9Y2R2 whole entry): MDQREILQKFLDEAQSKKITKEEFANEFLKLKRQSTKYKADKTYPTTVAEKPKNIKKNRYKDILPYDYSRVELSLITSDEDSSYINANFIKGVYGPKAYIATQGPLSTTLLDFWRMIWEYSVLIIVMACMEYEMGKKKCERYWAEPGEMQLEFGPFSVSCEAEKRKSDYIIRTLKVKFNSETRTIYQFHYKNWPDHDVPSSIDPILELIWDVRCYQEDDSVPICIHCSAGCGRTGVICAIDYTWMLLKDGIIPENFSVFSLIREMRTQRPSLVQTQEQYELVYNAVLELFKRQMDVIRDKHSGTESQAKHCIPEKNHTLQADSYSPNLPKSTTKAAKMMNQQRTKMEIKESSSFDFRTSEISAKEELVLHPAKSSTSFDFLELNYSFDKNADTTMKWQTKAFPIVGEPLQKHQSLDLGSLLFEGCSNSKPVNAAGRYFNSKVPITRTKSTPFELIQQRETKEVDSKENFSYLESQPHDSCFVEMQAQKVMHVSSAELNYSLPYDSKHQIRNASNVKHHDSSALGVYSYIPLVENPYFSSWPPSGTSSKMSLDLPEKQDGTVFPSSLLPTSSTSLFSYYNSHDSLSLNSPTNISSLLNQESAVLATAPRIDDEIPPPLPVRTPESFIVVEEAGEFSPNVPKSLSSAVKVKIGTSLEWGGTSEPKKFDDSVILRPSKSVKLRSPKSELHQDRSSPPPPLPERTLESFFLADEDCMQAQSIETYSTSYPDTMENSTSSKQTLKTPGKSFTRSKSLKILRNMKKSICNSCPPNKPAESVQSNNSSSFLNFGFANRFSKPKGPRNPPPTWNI

[25] = biological target: T3, Low molecular weight phosphotyrosine protein phosphatase (Homo sapiens, UniProt P24666); format: functional; conditions: read-out: IC50_Mean
T3 sequence (P24666 whole entry): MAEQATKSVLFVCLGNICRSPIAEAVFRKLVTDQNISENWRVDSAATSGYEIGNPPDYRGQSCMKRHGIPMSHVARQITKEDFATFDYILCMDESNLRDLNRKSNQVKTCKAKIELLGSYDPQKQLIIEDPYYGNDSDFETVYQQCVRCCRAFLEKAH

[26] = biological target: T3, Low molecular weight phosphotyrosine protein phosphatase; format: functional; conditions: read-out: IC50_Mean; remark: listed apart in the source
[27] = A cytotoxicity screen of small molecule inhibitors of the PhoP region in Salmonella typhi identified in the primary screen. [Related pubchem assays: 1850, 1864, 1985 ]; format: functional
[28] = biological target: Heat shock protein HSP 90-alpha (Homo sapiens, UniProt P07900); format: functional, organism-based
[29] = test system: H9c2; test: cells; format: functional, cell-based; conditions: Rattus norvegicus, H9c2, Myocardium;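 also: confirmatory concentration-response retest of ultra-high-throughput screening hits for modulation of myocardial damage; cell death induced by hydrogen peroxide oxidative stress; compound pretreatment for 60 min then peroxide exposure for 2 h; potency is for protecting the cells against peroxide damage rather than for killing them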
[30] = biological target: T4, Corticotropin-releasing factor receptor 2/Corticotropin-releasing factor-binding protein (Homo sapiens, UniProt P24387+Q13324); test: Dose Response confirmation of uHTS hits for small molecule antagonists of the CRF-binding protein and CRF-R2 receptor complex.; format: functional; conditions: read-out: IC50_Mean
T4 sequence (Q13324 whole entry): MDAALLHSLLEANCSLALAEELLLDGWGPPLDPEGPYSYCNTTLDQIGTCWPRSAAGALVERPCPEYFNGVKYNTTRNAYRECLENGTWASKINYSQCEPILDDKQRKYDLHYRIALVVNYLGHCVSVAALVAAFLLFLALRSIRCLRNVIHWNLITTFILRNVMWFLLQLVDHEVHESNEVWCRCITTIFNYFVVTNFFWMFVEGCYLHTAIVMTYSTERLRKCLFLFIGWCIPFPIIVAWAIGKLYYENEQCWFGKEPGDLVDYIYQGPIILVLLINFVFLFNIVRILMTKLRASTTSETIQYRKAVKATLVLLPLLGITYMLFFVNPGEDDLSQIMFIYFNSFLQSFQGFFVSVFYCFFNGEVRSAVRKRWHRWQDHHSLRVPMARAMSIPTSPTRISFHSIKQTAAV
T4 sequence (P24387 whole entry): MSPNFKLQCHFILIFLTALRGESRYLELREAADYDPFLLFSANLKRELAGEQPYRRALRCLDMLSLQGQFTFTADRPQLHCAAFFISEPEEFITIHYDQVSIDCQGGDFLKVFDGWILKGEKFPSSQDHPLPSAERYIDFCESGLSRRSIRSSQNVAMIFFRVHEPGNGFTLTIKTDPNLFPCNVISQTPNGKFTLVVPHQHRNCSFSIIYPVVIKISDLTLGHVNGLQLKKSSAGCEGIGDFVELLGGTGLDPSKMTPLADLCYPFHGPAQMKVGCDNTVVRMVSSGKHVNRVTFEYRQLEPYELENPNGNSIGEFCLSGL

[31] = blockers of CRF-binding protein–CRF-R2 complex – cell-based, uHTS hits, 384-well, dose response (AID 651639); format: functional, Homo sapiens; conditions: read-out: IC50_Mean
[32] = biological target: T4, Corticotropin-releasing factor receptor 2/Corticotropin-releasing factor-binding protein; test: activators of CRF receptor 2 with binding protein – uHTS hits, confirmation (AID 602473); format: functional; conditions: read-out: EC50_Mean

CCOC(=O)c1ccc(NC(=O)Nc2ccon2)cc1
EC50 [1]: 8.42 µM (active) | IC50 [2]: 49.7 µM (inactive) | EC50 [3]: 0.401 µM (active) | EC50 [4]: 20.1 µM (active) | EC50 [5]: < 0.104 µM (active) | EC50 [6]: 0.429 µM (active) | EC50 [7]: 0.469 µM (active)

O=c1cc(-c2ccc(O)cc2)oc2cc(O)cc(O)c12 [APIGENIN]
AC50 [8]: 35.5 µM (inconclusive) and 28.2 µM (inconclusive)

O=c1c2ccccc2[nH]c(=S)n1CCN1CCCCC1
IC50 [9]: 7.94 µM (active) | IC50 [10]: 8.77 µM (active)

O=C(Nc1ccc(S(=O)(=O)N2CCOCC2)cc1)c1ccc([N+](=O)[O-])o1
AC50 [11]: 3.43 µM (active) | IC50 [12]: 0.443 µM (active) | CC50 [13]: 3.98 µM (active) | IC50 [14]: 10.8 µM (inactive) | CC50 [15]: 4.04 µM (active) | IC50 [16]: 35.9 µM (inactive) | EC50 [17]: > 120 µM (not active) | EC50 [18]: > 120 µM (not active) | EC50 [19]: > 120 µM (not active) | IC50 [20]: 6.7 µM (active)

Cc1cccc(C)c1OCc1cc(C(=O)N2CCC(c3ccncc3)CC2)no1
EC50 [21]: > 112 µM (not active) | EC50 [22]: > 112 µM (not active) | IC50 [23]: 6.23 µM (active)

COc1ccccc1CNc1nc(NCc2ccc(NC(C)=O)cc2)c2sccc2n1
IC50 [24]: 50.4 µM (inactive) | IC50 [25]: 5.86 µM (active) | IC50 [26]: 17.7 µM (active)

Cc1c(/N=C/c2cc(Br)cc(Br)c2O)cccc1C(=O)O
IC50 [9]: 2.67 µM (active) | EC50 [27]: > 50 µM (active) | AC50 [28]: 3.56 µM (active) | IC50 [10]: 3.44 µM (active) | IC50 [29]: 20 µM (active)

COC(=O)c1ccc(Sc2ccc(Cl)cc2)c(N)c1
IC50 [30]: < 0.368 µM (active) | IC50 [31]: > 20 µM (inactive) | EC50 [32]: > 53 µM (inactive)
